# Columns and labels:
# [1] = tested on: hamster; assay: luteolytic activity in the hamster after subcutaneous injection; assay type: in vivo; details: Mesocricetus auratus, sc, according to A. B. Labhsetwar, Nature, vol. 230, page 528 (1971)
# Procedure: In this application, the compounds are administered either by intravenous infusion at a dose of approximately 0.01-0.05 μg/kg/minute until the end of labor, or by mouth at a single or multiple doses from about 0.05 mg to about 5 mg pro dose. […] For example, the luteolytic activity of the compound 5c-9α,11α,15(S)-trihydroxy-18,19,20-trinor-17-cyclohexyl-prost-5-en-13-ynoic acid 2-ethoxy-ethyl ester, expressed as ED50 value and evaluated in the hamster after subcutaneous injection [according to A. B. LABHSETWAR, Nature, vol.
# [2] = duration of activity when administered orally; assay type: in vivo
# [3] = orientative acute toxicity, LD50, single oral administration; details: mouse, in vivo, mice, nine hours food deprived, assessed on the seventh day
# Procedure: The evaluation of the toxicity (as orientative acute toxicity, i.e. LD50) was carried out, e.g., as follows: nine hours food deprived mice were treated orally with single administration of increasing doses, then housed and normally fed; the LD50 was assessed on the seventh day after the treatment.
smiles,measurement,setting,value
"CCOCCOC(=O)CCC/C=C\C[C@@H]1[C@@H](C#C[C@@H](O)CCC2CCCCC2)[C@H](O)C[C@@H]1O [5c-9α,11α,15(S)-trihydroxy-18,19,20-trinor-17-cyclohexyl-prost-5-en-13-ynoic acid 2-ethoxy-ethyl ester]",ED50,[1],0.005 mg/kg
"COC(=O)CCC/C=C\C[C@@H]1[C@@H](C#C[C@@H](O)CCC2CCCCC2)[C@H](O)C[C@@H]1O [5c-9α,11α,15(S)-trihydroxy-18,19,20-trinor-17-cyclohexyl-prost-5-en-13-ynoic acid methyl ester, reference compound]",ED50,[1],0.009 mg/kg
"CCOCCOC(=O)CCC/C=C\C[C@@H]1[C@@H](C#C[C@@H](O)CC2CCCCC2)[C@H](O)C[C@@H]1O [5c-9α,11α,15(S)-trihydroxy-17,18,19,20-tetranor-16-cyclohexyl-prost-5-en-13-ynoic acid 2-ethoxy-ethyl ester]",activity duration compared with the parent acid or alkyl ester derivatives,[2],more lasting activity
"CCOCCOC(=O)CCC/C=C\C[C@@H]1[C@@H](C#C[C@@H](O)CCCCC2CCCCC2)[C@H](O)C[C@@H]1O [5c-9α,11α,15(S)-trihydroxy-20-nor-19-cyclohexyl-prost-5-en-13-ynoic acid 2-ethoxy-ethyl ester]",LD50 at 168 h,[3],> 3000 mg/kg
same,activity duration compared with the parent acid or alkyl ester derivatives,[2],more lasting activity

# — patent US4543353A, “Ester and amide derivatives of 13,14-didehydro prostaglandins” (Farmitalia Carlo Erba S.p.A., priority 1981, dated 1985)
